Test results as given in the supplement of paper PMC10307832.

Assays:
Test in all cases: relative viability (nuclei count vs DMSO), 5 days (fraction); higher = more cells survive
FH535 + Lapatinib = compound: CC1=C(C=CC(=C1)[N+](=O)[O-])NS(=O)(=O)C2=C(C=CC(=C2)Cl)Cl [FH535] + CS(=O)(=O)CCNCc1ccc(-c2ccc3ncnc(Nc4ccc(OCc5cccc(F)c5)c(Cl)c4)c3c2)o1 [Lapatinib] (partner 2 µM)
In short: (§1)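 Relative viability was taken as the ratio of nuclei in treated wells to nuclei in vehicle wells. Lung cancer cell lines in 1536-well plates received compounds by pin tool one day after seeding, either one drug alone or a fixed anchor-drug dose plus five library-drug doses (not always all listed) in √10 steps. Nuclei were counted on 4× images after 5 days of treatment, and values are medians of duplicate plates.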

FH535 + Pictilisib = compound: CC1=C(C=CC(=C1)[N+](=O)[O-])NS(=O)(=O)C2=C(C=CC(=C2)Cl)Cl [FH535] + CS(=O)(=O)N1CCN(Cc2cc3nc(-c4cccc5[nH]ncc45)nc(N4CCOCC4)c3s2)CC1 [Pictilisib] (partner 1 µM)
In short: as §1

FH535 + Alpelisib = compound: CC1=C(C=CC(=C1)[N+](=O)[O-])NS(=O)(=O)C2=C(C=CC(=C2)Cl)Cl [FH535] + Cc1nc(NC(=O)N2CCC[C@H]2C(N)=O)sc1-c1ccnc(C(C)(C)C(F)(F)F)c1 [Alpelisib] (partner 2 µM)
In short: as §1

FH535 + Dasatinib = compound: CC1=C(C=CC(=C1)[N+](=O)[O-])NS(=O)(=O)C2=C(C=CC(=C2)Cl)Cl [FH535] + Cc1nc(Nc2ncc(C(=O)Nc3c(C)cccc3Cl)s2)cc(N2CCN(CCO)CC2)n1 [Dasatinib] (partner 0.075 µM)
In short: as §1

FH535 + Phenformin = compound: CC1=C(C=CC(=C1)[N+](=O)[O-])NS(=O)(=O)C2=C(C=CC(=C2)Cl)Cl [FH535] + N=C(N)NC(=N)NCCc1ccccc1 [Phenformin] (partner 250 µM)
In short: as §1

Row | Cell Line | relative viability (FH535 + Lapatinib; first compound 0.04 µM) | relative viability (FH535 + Lapatinib; first compound 0.1265 µM) | relative viability (FH535 + Lapatinib; first compound 0.4 µM) | relative viability (FH535 + Lapatinib; first compound 1.265 µM) | relative viability (FH535 + Pictilisib; first compound 0.04 µM) | relative viability (FH535 + Pictilisib; first compound 0.1265 µM) | relative viability (FH535 + Pictilisib; first compound 0.4 µM) | relative viability (FH535 + Pictilisib; first compound 1.265 µM) | relative viability (FH535 + Alpelisib; first compound 0.04 µM) | relative viability (FH535 + Alpelisib; first compound 0.1265 µM) | relative viability (FH535 + Alpelisib; first compound 0.4 µM) | relative viability (FH535 + Alpelisib; first compound 1.265 µM) | relative viability (FH535 + Dasatinib; first compound 0.04 µM) | relative viability (FH535 + Dasatinib; first compound 0.1265 µM) | relative viability (FH535 + Dasatinib; first compound 0.4 µM) | relative viability (FH535 + Dasatinib; first compound 1.265 µM) | relative viability (FH535 + Phenformin; first compound 0.04 µM) | relative viability (FH535 + Phenformin; first compound 0.1265 µM) | relative viability (FH535 + Phenformin; first compound 0.4 µM) | relative viability (FH535 + Phenformin; first compound 1.265 µM)
1 | LOU-NH91 | 0.726 | 0.667 | 0.6 | 0.408 | 0.471 | 0.554 | 0.48 | 0.339 | 0.714 | 0.793 | 0.679 | 0.409 | 0.573 | 0.613 | 0.388 | 0.267 | 0.554 | 0.471 | 0.424 | 0.392
2 | LU99A | 0.739 | 1.05 | 0.969 | 0.866 | 0.291 | 0.324 | 0.335 | 0.295 | 0.457 | 0.498 | 0.534 | 0.522 | 0.435 | 0.439 | 0.468 | 0.507 | 0.55 | 0.856 | 0.764 | 0.729
3 | LXF-289 | 0.88 | 0.878 | 0.886 | 0.801 | 0.69 | 0.793 | 0.758 | 0.681 | 0.958 | 0.98 | 0.91 | 0.794 | 0.205 | 0.262 | 0.225 | 0.212 | 0.474 | 0.486 | 0.472 | 0.384
4 | NCI-H23 | – | 1.17 | 0.936 | 0.913 | – | 0.41 | 0.483 | 0.508 | – | 0.761 | 0.636 | 0.631 | 0.769 | 0.529 | 0.61 | 0.731 | 0.786 | 0.739 | 0.655 | 0.555
5 | NCI-H322M | 0.504 | 0.554 | 0.555 | 0.595 | 0.471 | 0.539 | 0.436 | 0.497 | 0.722 | 0.783 | 0.83 | 0.761 | 0.255 | 0.268 | 0.238 | 0.219 | 0.813 | 0.844 | 0.707 | 0.601
6 | NCI-H441 | – | – | – | – | 0.434 | 0.469 | 0.443 | 0.423 | 0.529 | 0.638 | 0.686 | 0.605 | 0.436 | 0.518 | 0.527 | 0.472 | 0.316 | 0.829 | 0.709 | 0.512
7 | NCI-H522 | – | – | – | – | – | – | – | – | – | – | – | – | 0.882 | 0.862 | 0.827 | 0.979 | 0.591 | 0.575 | 0.621 | 0.62
8 | NCI-H1650 | 0.642 | 0.73 | 0.74 | 0.784 | 0.503 | 0.56 | 0.545 | 0.594 | – | – | – | – | 0.281 | 0.299 | 0.3 | 0.297 | 0.365 | 0.405 | 0.33 | 0.201
9 | NCI-H1703 | 1.12 | 1.12 | 1.11 | 0.662 | 0.195 | 0.213 | 0.257 | 0.219 | 0.403 | 0.362 | 0.327 | 0.269 | – | – | – | – | – | – | – | –
10 | SW 900 | – | – | – | – | – | – | – | – | – | – | – | – | 0.481 | 0.748 | 0.507 | 0.63 | 0.569 | 0.667 | 0.48 | 0.236
